Laboratory results as given in patent publication US6806230B1, “Pyrimidine derivatives and herbicides containing them” (Kumiai Chemical Industry Co., Ltd., priority 1999, dated 2004).

What was measured:
Format in all cases: in vivo
barnyard grass (Eo) [1] = assay: Test Example 1: herbicidal effects by flooded paddy field treatment; design: herbicidal effects, Eo (barnyard grass):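 0-5 growth inhibition grade; 5 = over 90%; 4 = 70-90%; 3 = 50-70%; 2 = 30-50%; 1 = 10-30%; 0 = under 10%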; conditions: dose 100 g active ingredient per 10 ares, examined on the 21st day after treatment, standards of Table 44
How it was run: (§1)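 Herbicidal effect scored 21 days post-treatment after greenhouse cultivation. Treatment was applied dropwise to the water surface, one day after sowing, as a diluted wettable powder (100 g a.i./10 ares). Pots held puddled paddy soil under 3 cm water.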

monochoria (Mo) [2] = assay: as above; design: herbicidal effects, Mo (monochoria):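 0-5 growth inhibition grade; 5 = over 90%; 4 = 70-90%; 3 = 50-70%; 2 = 30-50%; 1 = 10-30%; 0 = under 10%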; conditions: dose 100 g active ingredient per 10 ares, examined on the 21st day after treatment, standards of Table 44
How it was run: as §1

barnyard grass (Ec) [3] = assay: Test Example 2: herbicidal effects by upland soil treatment; design: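 0-5 growth inhibition grade; 5 = over 90%; 4 = 70-90%; 3 = 50-70%; 2 = 30-50%; 1 = 10-30%; 0 = under 10%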; conditions: dose 100 g active ingredient per 10 ares, examined on the 21st day after treatment
How it was run: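 Pre-emergence test: barnyard grass and green foxtail sown in upland soil, then soil surface sprayed with wettable-powder formulation at 100 g active ingredient per 10 ares (100 l per 10 ares). Grown in greenhouse; herbicidal effect scored on a rating scale 21 days after treatment.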

barnyard grass (Ec) [4] = assay: Test Example 3: herbicidal effects by foliage treatment in upland field; design: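 0-5 growth inhibition grade; 5 = over 90%; 4 = 70-90%; 3 = 50-70%; 2 = 30-50%; 1 = 10-30%; 0 = under 10%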; conditions: dose 100 g active ingredient per 10 ares, examined on the 14th day after treatment
How it was run: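 Barnyard grass and green foxtail were grown in upland soil for 2 weeks in a greenhouse. A water-diluted wettable powder was sprayed over the foliage at 100 l per 10 ares, giving 100 g active ingredient per 10 ares. Herbicidal effect was scored on day 14 after treatment.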

barnyard grass (Eo) [5] = assay: Test Example 4: selectivity for a crop plant by flooded paddy field treatment; design: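 0-5 growth inhibition grade; 5 = over 90%; 4 = 70-90%; 3 = 50-70%; 2 = 30-50%; 1 = 10-30%; 0 = under 10%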; conditions: barnyard grass, dose 25 gai/10a, 21st day after treatment, index per Table 44
How it was run: (§2)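 Flooded-paddy treatment: the wettable powder formulation, diluted in water, was applied dropwise to 3 cm floodwater at 25 g a.i./10 ares one day after sowing barnyard grass and monochoria and transplanting rice at the second leaf stage. Greenhouse grown; herbicidal effect rated against set standards on day 21.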

monochoria (Mo) [6] = assay: as above; design: scale not given here; conditions: monochoria, dose 25 gai/10a, 21st day after treatment, index per Table 44
How it was run: as §2

rice (Or) = assay: as above; design: scale not given here; conditions: rice transplanted at second leaf stage, dose 25 gai/10a, 21st day after treatment, index per Table 44
How it was run: as §2

| Structure (SMILES) | herbicidal effects, Eo (barnyard grass) (barnyard grass (Eo) [1]) | herbicidal effects, Mo (monochoria) (monochoria (Mo) [2]) | Ec (herbicidal effects, index) (barnyard grass (Ec) [3]) | Ec (herbicidal effects, index) (barnyard grass (Ec) [4]) | Eo (herbicidal effect index) (barnyard grass (Eo) [5]) | Mo (herbicidal effect index) (monochoria (Mo) [6]) | Or (herbicidal effect index on crop) (rice (Or)) |
| --- | --- | --- | --- | --- | --- | --- | --- |
| CN(C(=O)Cc1ccc(Cl)cc1)C(c1ccsc1)c1cncnc1C(F)(F)F (racemic) [1-442] | 5 | 5 | 5 | 4 | 5 | 5 | 1 |
| CCCC(c1cncnc1C(C)C)N(C)C(=O)Cc1ccc(C)cc1 (racemic) [1-452] | 5 | 5 | 5 | 4 | 5 | 5 | 0 |
| CCOC(OCC)C(c1cncnc1C(C)C)N(C)C(=O)Cc1ccccc1 (racemic) [1-454] | 5 | 5 | 4 | 4 | 5 | 5 | 1 |
| CCOC(OCC)C(c1cncnc1C(C)C)N(C)C(=O)Cc1ccc(F)cc1 (racemic) [1-455] | 5 | 5 | 5 | 4 | 5 | 5 | 1 |
| CC(C)C(c1cncnc1C(F)(F)F)N(C)C(=O)N(C)c1ccc(C#N)cc1 (racemic) [1-459] | 5 | 5 | 5 | 4 | 5 | 5 | 1 |
| CC(C)C(c1cncnc1C(F)(F)F)N(C)C(=O)NCc1ccccc1 (racemic) [1-461] | 5 | 5 | 5 | 4 | 5 | 5 | 1 |
| CN(C(=O)Cc1ccc(F)cc1)C(c1cncnc1C1(C)CC1)C1(C)CC1 (racemic) [1-473] | 5 | 5 | 5 | 5 | 5 | 5 | 1 |
| COc1ccc(C(c2cncnc2C(F)(F)F)N(C)C(=O)Cc2ccccc2)cc1 (racemic) [1-484] | 5 | 5 | 5 | 5 | 5 | 5 | 1 |
| COc1ccccc1C(c1cncnc1C(F)(F)F)N(C)C(=O)Cc1ccc(F)cc1 (racemic) [1-489] | 5 | 5 | 5 | 4 | 5 | 5 | 1 |
| COc1ccccc1C(c1cncnc1C(F)(F)F)N(C)C(=O)Cc1ccc(Cl)cc1 (racemic) [1-490] | 5 | 5 | 5 | 4 | 5 | 5 | 0 |
| CCCc1ncncc1C(CCC)N(C)C(=O)Cc1ccccc1 (racemic) [1-492] | 5 | 5 | 5 | 5 | 5 | 5 | 0 |
| CCCc1ncncc1C(CCC)N(C)C(=O)Cc1ccc(F)cc1 (racemic) [1-493] | 5 | 5 | 5 | 4 | 5 | 5 | 1 |
| CCCc1ncncc1C(CCC)N(C)C(=O)Cc1ccc(Cl)cc1 (racemic) [1-494] | 5 | 5 | 5 | 5 | 5 | 5 | 1 |
| CON=Cc1ncncc1C(C(C)C)N(C)C(=O)Cc1ccccc1 (racemic) [1-496] | 5 | 5 | 5 | 4 | 5 | 5 | 1 |
| CC(C)C(c1cncnc1C#N)N(C)C(=O)Cc1ccc(F)cc1 (racemic) [1-505] | 5 | 5 | 5 | 5 | 5 | 5 | 0 |
| CC(C)C(c1cncnc1C#N)N(C)C(=O)Cc1ccc(Cl)cc1 (racemic) [1-506] | 5 | 5 | 5 | 4 | 5 | 5 | 1 |
| Cc1ccc(CC(=O)N(C)C(c2cncnc2C#N)C(C)C)cc1 (racemic) [1-507] | 5 | 5 | 5 | 4 | 5 | 5 | 1 |
| COC(C)(OC)c1ncncc1C(C(C)C)N(C)C(=O)Cc1ccc(Cl)cc1 (racemic) [1-517] | 5 | 5 | 5 | 4 | 5 | 5 | 1 |
| C=CCN(C(=O)Cc1ccc(F)cc1)C(c1cncnc1C(F)(F)F)C(C)C (racemic) [1-519] | 5 | 5 | 5 | 4 | 5 | 5 | 1 |
| CC(=O)c1ncncc1C(C(C)C)N(C)C(=O)Cc1ccc(F)cc1 (racemic) [1-527] | 5 | 5 | 5 | 4 | 5 | 5 | 1 |
| CC(=O)c1ncncc1C(C(C)C)N(C)C(=O)Cc1ccc(Cl)cc1 (racemic) [1-528] | 5 | 5 | 5 | 4 | 5 | 5 | 1 |
| CC(=O)c1ncncc1C(C(C)C)N(C)C(=O)Cc1ccc(C)cc1 (racemic) [1-529] | 5 | 5 | 5 | 5 | 5 | 5 | 1 |
| CCc1ncncc1C(C(C)C)N(C)C(=O)N(C)c1ccc(C)cc1 (racemic) [1-541] | 5 | 5 | 5 | 4 | 5 | 5 | 1 |
| CN(C(=O)Cc1ccc(F)cc1)C(c1ccccc1F)c1cncnc1C(F)(F)F (racemic) [1-547] | 5 | 5 | 5 | 4 | 5 | 5 | 1 |
| C#CCN(C(=O)Cc1ccccc1)C(c1cncnc1CC)C(C)C (racemic) [1-558] | 5 | 5 | 5 | 4 | 5 | 5 | 1 |
